Laboratory results published in ChEMBL document CHEMBL1155381, “Optimization of 5-vinylaryl-3-pyridinecarbonitriles as PKCtheta inhibitors” (Bioorg Med Chem Lett, 2010).
Values after ≈ are worked out from the molar mass of the structure shown.

What was measured:
Mus musculus = experiment: Cavg in NZBWF1/J mouse at 25 mg/kg, po; type: ADME, organism-based; set-up: dose 25 mg/kg, route oral; details: in vivo
[1] = Permeability by PAMPA; type: ADME; details: read-out: permeability
[2] = Aqueous solubility of compound; type: physicochemical; details: buffer
[3] = Cmax in NZBWF1/J mouse at 25 mg/kg, po; type: ADME, organism-based; set-up: dose 25 mg/kg, route oral; details: in vivo
[4] = AUC in NZBWF1/J mouse at 25 mg/kg, po; type: ADME, organism-based; set-up: dose 25 mg/kg, route oral; details: plasma

Drug uptake (Mus musculus): 740 nM | Papp [1]: 0.39 ×10⁻⁶ cm/s | solubility [2]: 61 µg/mL (≈ 132 µM) | Cmax [3]: 2200 nM | AUC [4]: 17.8 µM·h
Structure (SMILES): Cc1c(Nc2c(C#N)cncc2/C=C/c2cccc(CN3CCN(C)CC3)n2)ccc2[nH]ccc12
